# Measurements: PubChem BioAssay (NCI)
#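 Where inhibition never reached the appropriate level, the endpoint shown equals the highest concentration tested. Otherwise, values were interpolated linearly from a five-concentration, 48-hour dose response in 96-well plates. At the GI50, growth is halved. TGI denotes the concentration required for complete inhibition of growth.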
# Columns and labels:
# Assay in all cases: inhibition of tumour cell growth, NCI panel, 48 h
# A498 renal = test system: A498 renal
# UO-31 renal = test system: UO-31 renal
# ACHN renal = test system: ACHN renal
# RXF 393 renal = test system: RXF 393 renal
# T-47D breast = test system: T-47D breast
# PC-3 prostate = test system: PC-3 prostate
# HL-60(TB) leukemia = test system: HL-60(TB) leukemia
# NCI-H460 lung = test system: NCI-H460 lung
# HS 578T breast = test system: HS 578T breast
# UACC-62 melanoma = test system: UACC-62 melanoma
SMILES,GI50 (A498 renal),TGI (A498 renal),GI50 (UO-31 renal),TGI (UO-31 renal),GI50 (ACHN renal),TGI (ACHN renal),GI50 (RXF 393 renal),TGI (RXF 393 renal),GI50 (T-47D breast),TGI (T-47D breast),GI50 (PC-3 prostate),TGI (PC-3 prostate),GI50 (HL-60(TB) leukemia),TGI (HL-60(TB) leukemia),GI50 (NCI-H460 lung),TGI (NCI-H460 lung),GI50 (HS 578T breast),TGI (HS 578T breast),GI50 (UACC-62 melanoma),TGI (UACC-62 melanoma)
O=C(Oc1ccc([N+](=O)[O-])cc1)N1CCN(Cc2cccc(Oc3ccccc3)c2)CC1,> 47.6 µM,> 100 µM,8.17 µM,> 100 µM,> 100 µM,> 100 µM,> 100 µM,> 100 µM,17.7 µM,> 100 µM,> 69.6 µM,> 100 µM,24.2 µM,> 100 µM,99.3 µM,> 100 µM,> 100 µM,> 100 µM,13.6 µM,> 100 µM
COc1ccc(-c2cnc(-c3ccc(F)cc3)[nH]2)cc1,2.2 µM,6.17 µM,6.59 µM,20.4 µM,15.2 µM,30.5 µM,2.2 µM,5.59 µM,8.39 µM,36.4 µM,10.8 µM,68.4 µM,2.03 µM,23.4 µM,8.37 µM,29.6 µM,2.14 µM,11.2 µM,19.4 µM,> 50 µM
COc1ccc(C2NCCc3c2[nH]c2ccccc32)cc1CN1CCN(c2ccc(F)cc2)CC1 (stereo not given),0.399 µM,4.21 µM,1.57 µM,4.12 µM,1.87 µM,3.69 µM,1.37 µM,2.94 µM,1.88 µM,3.94 µM,2.21 µM,5.35 µM,2.14 µM,4.77 µM,1.85 µM,3.49 µM,1.6 µM,3.75 µM,1.8 µM,3.32 µM
